Test results reported in patent US12479827B2, “Heteroaromatic carboxamide derivatives as plasma kallikrein inhibitors” (Boehringer Ingelheim International GmbH, priority 2020, dated 2025).
pIC50, pKi: −log10 of the molar value.

How the values were obtained:
Type in all cases: biochemical
Human PKK = molecular target: T1, Human PKK (Homo sapiens, UniProt P03952); assay: Inhibition of PKK using an endpoint assay (human PKK); details: fluorogenic substrate H-Pro-Phe-Arg-AMC, 1 h room temperature, method names human or rat PKK, table does not say which
T1 construct: purchased Enzyme Research Laboratories
Method in brief: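 Endpoint fluorescence (ex 355 nm, em 460 nm) after stopping with 1 μM final PPACK II. Buffer: Tris 100 mM pH 7.8, NaCl 150 mM, BSA 0.1%, Tween20 0.05%, with 1% DMSO present; enzyme is human plasma kallikrein.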

[1] = molecular target: T2, PKK in kaolin activated human platelet poor plasma (Homo sapiens, UniProt P03952); assay: Inhibition of PKK in kaolin activated human PPP; details: 25-750 μg/mL kaolin, global fit, text b200 calls the values IC90;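 note: readout is the rate of fluorogenic substrate cleavage in rfu per min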
T2 construct: Platelet poor plasma (PPP) obtained from human wholeblood; from tissue
Procedure: Platelet poor plasma (PPP) obtained from human wholeblood, anticoagulated with Na-Citrate, is incubated with various concentrations of the test compound together with either 25, 75, 250, or 750 μg/mL kaolin in assay buffer for 20 min at 37° C. such that for each kaolin dose used a concentration response is obtained for the test compound.

human TK1 = molecular target: T3, human TK1 (Homo sapiens, UniProt P06870); assay: Inhibition of TK1 (Ki); details: activated human TK1, substrate H-Pro-Phe-Arg-AMC, 24° C.
T3 construct: purchased R&D Systems
Procedure: The ability of compounds of formula (I) to inhibit plasma kallikrein (PKK), Factor XIIa (FXIIa), Factor XIa (FXIa), Factor Xa (FXa), Factor IIa (alpha-thrombin; FIIa), plasmin, trypsin, tissue kallikrein 1 (TK1), Factor VIIa (FVIIa), or FVIIa complexed with Tissue Factor, phospholipids and CaCl2 (FVIIa/TF/PL/CaCl2) is determined using the following biochemical assays in assay buffer (100 mM Tris, 150 mM NaCL, adjusted to a pH of 7.8 with HCl, and containing 0.1% (w/v) BSA and 0.05% (v/v) Tween20) in the presence of 1% (v/v) DMSO:
Prior to the assay, human TK1 (R&D Systems) is activated by incubation with human trypsin (Calbiochem) in a 1:10,000 ratio for 15 min at 37° C. For assaying TK1 inhibitory activity, activated TK1 (31.25 nM or 1 U/mL) is incubated at 24° C. with 0.1 mM fluorogenic substrate H-Pro-Phe-Arg-AMC (11295 from Bachem) and various concentrations of the test compound in assay buffer. Measurements are performed in a kinetic interval every 2nd minute for 16 min using a Spectramax M5 (Molecular Devices) with the following settings of the wavelength excitation of 350 nm and wavelength emission of 450 nm.
The pIC50 values are then fitted using a four-parametric fitting procedure using GraphPad Prism (version 6; GraphPad Software, Inc.). Respective Ki values are obtained by correction of the IC50 values for the respective KM value of the used substrate (see Table A for the obtained KM values of the used substrates) using the following formula:
[formula] Where the IC50 is in molar and the KM value in mM.

T1 sequence (P03952 20-390 limits assumed): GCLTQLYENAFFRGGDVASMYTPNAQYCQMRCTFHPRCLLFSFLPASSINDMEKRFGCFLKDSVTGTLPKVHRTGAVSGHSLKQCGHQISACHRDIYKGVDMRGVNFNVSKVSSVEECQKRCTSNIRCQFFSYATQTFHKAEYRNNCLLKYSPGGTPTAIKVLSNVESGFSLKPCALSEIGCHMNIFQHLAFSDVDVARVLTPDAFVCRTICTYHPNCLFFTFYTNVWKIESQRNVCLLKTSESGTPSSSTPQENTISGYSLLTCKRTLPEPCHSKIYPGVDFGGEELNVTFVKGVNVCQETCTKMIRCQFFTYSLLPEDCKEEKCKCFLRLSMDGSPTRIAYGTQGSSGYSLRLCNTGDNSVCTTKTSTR
T1 sequence (P03952 391-638 limits assumed): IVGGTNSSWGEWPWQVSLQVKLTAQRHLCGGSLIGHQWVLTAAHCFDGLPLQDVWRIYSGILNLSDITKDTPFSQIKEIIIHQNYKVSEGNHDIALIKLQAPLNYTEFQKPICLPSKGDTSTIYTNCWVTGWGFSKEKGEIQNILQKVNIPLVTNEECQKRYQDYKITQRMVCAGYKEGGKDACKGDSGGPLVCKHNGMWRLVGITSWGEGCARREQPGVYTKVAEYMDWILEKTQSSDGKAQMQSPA
T2 sequence (P03952 391-638 limits assumed): as above
T2 sequence (P03952 20-390 limits assumed): as the sequence (P03952 20-390 limits assumed) above
T3 sequence (P06870 25-262): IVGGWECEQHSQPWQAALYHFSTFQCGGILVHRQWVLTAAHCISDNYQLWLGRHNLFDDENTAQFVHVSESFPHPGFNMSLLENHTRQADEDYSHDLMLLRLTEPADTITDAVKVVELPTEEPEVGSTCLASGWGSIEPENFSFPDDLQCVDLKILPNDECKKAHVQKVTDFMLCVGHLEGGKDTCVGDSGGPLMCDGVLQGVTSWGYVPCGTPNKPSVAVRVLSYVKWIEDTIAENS

pIC50 (Human PKK)	pIC50 [1]	pKi (human TK1)	SMILES
8.38	6.04	< 5.00	Cn1cnc2c1CC[C@H]2NC(=O)c1cn(Cc2ccc(N3CC4CC4C3)nc2)nn1 (stereo partly drawn) [Example 135, 1-[(6-{3-Azabicyclo[3.1.0]hexan-3-yl}pyridin-3-yl)methyl]-N-[(4R)-1-methyl-1H,4H,5H,6H-cyclopenta[d]imidazol-4-yl]-1H-1,2,3-triazole-4-carboxamide]
8.80	6.29	< 5.00	Cn1cnc2c1CC[C@H]2NC(=O)c1cn(Cc2cnc(N3CC4CC4C3)cc2C(F)(F)F)cn1 (stereo partly drawn) [Example 121, 1-[(6-{3-Azabicyclo[3.1.0]hexan-3-yl}-4-(trifluoromethyl)pyridin-3-yl)methyl]-N-[(4R)-1-methyl-1H,4H,5H,6H-cyclopenta[d]imidazol-4-yl]-1H-imidazole-4-carboxamide]
8.82	6.46	< 5.00	Cn1cnc2c1CC[C@H]2NC(=O)c1cn(Cc2ccc(N3CC4CC4C3)c(C#N)c2)cn1 (stereo partly drawn) [Example 196, 1-[(4-{3-azabicyclo[3.1.0]hexan-3-yl}-3-cyanophenyl)methyl]-N-[(4R)-1-methyl-1H,4H,5H,6H-cyclopenta[d]imidazol-4-yl]-1H-imidazole-4-carboxamide]
8.82	6.31	< 5.00	Cn1cnc2c1CC[C@H]2NC(=O)c1cn(Cc2ccc(N3CC4CC4C3)nc2Cl)cn1 (stereo partly drawn) [Example 122, 1-[(6-{3-Azabicyclo[3.1.0]hexan-3-yl}-2-chloropyridin-3-yl)methyl]-N-[(4R)-1-methyl-1H,4H,5H,6H-cyclopenta[d]imidazol-4-yl]-1H-imidazole-4-carboxamide]
8.36	6.12	< 5.00	Cc1nc(N2CC3CC3C2)ncc1Cn1cc(C(=O)N[C@@H]2CCc3c2ncn3C)nn1 (stereo partly drawn) [Example 137, 1-[(2-{3-Azabicyclo[3.1.0]hexan-3-yl}-4-methylpyrimidin-5-yl)methyl]-N-[(4R)-1-methyl-1H,4H,5H,6H-cyclopenta[d]imidazol-4-yl]-1H-1,2,3-triazole-4-carboxamide]
8.62	6.08	< 5.00	Cc1nc(N2CC3CC3C2)c(C#N)cc1Cn1cnc(C(=O)N[C@@H]2CCc3c2ncn3C)c1 (stereo partly drawn) [Example 124, 1-[(6-{3-Azabicyclo[3.1.0]hexan-3-yl}-5-cyano-2-methylpyridin-3-yl)methyl]-N-[(4R)-1-methyl-1H,4H,5H,6H-cyclopenta[d]imidazol-4-yl]-1H-imidazole-4-carboxamide]
9.22	6.31	< 5.00	Cc1nc(N2CC3(CC3)C2)ccc1Cn1cc(C(=O)N[C@@H]2CCc3c2ncn3C)cn1 [Example 169, 1-[(6-{5-Azaspiro[2.3]hexan-5-yl}-2-methylpyridin-3-yl)methyl]-N-[(4R)-1-methyl-1H,4H,5H,6H-cyclopenta[d]imidazol-4-yl]-1H-pyrazole-4-carboxamide]
7.96	4.65	< 5.00	Cc1nc(N2CC3CC3C2)ccc1Cc1ccc(C(=O)N[C@@H]2CCc3c2ncn3C)o1 (stereo partly drawn) [Example 181, 5-[(6-{3-Azabicyclo[3.1.0]hexan-3-yl}-2-methylpyridin-3-yl)methyl]-N-[(4R)-1-methyl-1H,4H,5H,6H-cyclopenta[d]imidazol-4-yl]furan-2-carboxamide]
8.70	6.51	< 5.00	Cc1nc(N2CC3C(C2)C3(F)F)ncc1Cn1cnc(C(=O)N[C@@H]2CCc3c2ncn3C)c1 (stereo partly drawn) [Example 136, 1-[(2-{6,6-Difluoro-3-azabicyclo[3.1.0]hexan-3-yl}-4-methylpyrimidin-5-yl)methyl]-N-[(4R)-1-methyl-1H,4H,5H,6H-cyclopenta[d]imidazol-4-yl]-1H-imidazole-4-carboxamide]

The remaining lines, values behind:

SMILES	pIC50 (Human PKK)	pIC50 [1]	pKi (human TK1)
Cn1cnc2c1CC[C@H]2NC(=O)c1cnn(Cc2cnc(N3CC4CC4C3)c(C#N)c2)c1 (stereo partly drawn) [Example 114, 1-[(6-{3-Azabicyclo[3.1.0]hexan-3-yl}-5-cyanopyridin-3-yl)methyl]-N-[(4R)-1-methyl-1H,4H,5H,6H-cyclopenta[d]imidazol-4-yl]-1H-pyrazole-4-carboxamide]	8.74	4.83	< 5.00
Cn1cnc2c1CC[C@H]2NC(=O)c1cn(Cc2ccc(N3CC4(CC4)C3)nc2C(F)F)nn1 [Example 4, 1-[(6-{5-Azaspiro[2.3]hexan-5-yl}-2-(difluoromethyl)-pyridin-3-yl)methyl]-N-[(4R)-1-methyl-1H,4H,5H,6H-cyclo-penta[d]imidazol-4-yl]-1H-1,2,3-triazole-4-carboxamide]	9.05	6.74	< 5.00
Cn1cnc2c1CC[C@H]2NC(=O)c1cn(Cc2ccc(N3CC4(CC4)C3)nc2Br)cn1 [Example 16, 1-[(6-{5-Azaspiro[2.3]hexan-5-yl}-2-bromopyridin-3-yl)methyl]-N-[(4R)-1-methyl-1H,4H,5H,6H-cyclopenta[d]imidazol-4-yl]-1H-imidazole-4-carboxamide]	9.22	6.55	< 5.00
Cc1nc(N2CC3C(C2)C3(F)F)ccc1Cn1cc(C(=O)N[C@@H]2CCc3c2ncn3C)nn1 (stereo partly drawn) [Example 27, 1-[(6-{6,6-Difluoro-3-azabicyclo[3.1.0]hexan-3-yl}-2-methylpyridin-3-yl)methyl]-N-[(4R)-1-methyl-1H,4H,5H,6H-cyclopenta[d]imidazol-4-yl]-1H-1,2,3-triazole-4-carboxamide]	9.05	6.69	< 5.00
Cc1nc(N2CC3C(C2)C3(F)F)ccc1Cn1cc(C(=O)N[C@@H]2CCc3c2ncn3C)cn1 (stereo partly drawn) [Example 90, 1-[(6-{6,6-Difluoro-3-azabicyclo[3.1.0]hexan-3-yl}-2-methylpyridin-3-yl)methyl]-N-[(4R)-1-methyl-1H,4H,5H,6H-cyclopenta[d]imidazol-4-yl]-1H-pyrazole-4-carboxamide]	9.15	6.90	< 5.00
CCc1nc(N2CC3CC3C2)ccc1Cn1cnc(C(=O)N[C@@H]2CCc3c2ncn3C)c1 (stereo partly drawn) [Example 75, 1-[(6-{3-Azabicyclo[3.1.0]hexan-3-yl}-2-ethylpyridin-3-yl)methyl]-N-[(4R)-1-methyl-1H,4H,5H,6H-cyclopenta[d]imidazol-4-yl]-1H-imidazole-4-carboxamide]	9.30	6.72	< 5.00
CCc1nc(N2CC3(CC3)C2)ccc1Cn1cc(C(=O)N[C@@H]2CCc3c2ncn3C)cn1 [Example 51, 1-[(6-{5-Azaspiro[2.3]hexan-5-yl}-2-ethylpyridin-3-yl)methyl]-N-[(4R)-1-methyl-1H,4H,5H,6H-cyclopenta[d]imidazol-4-yl]-1H-pyrazole-4-carboxamide]	9.00	6.67	< 5.00
Cn1cnc2c1CC[C@H]2NC(=O)c1cn(Cc2cnc(N3CC4CC4C3)cc2Cl)cn1 (stereo partly drawn) [Example 120, 1-[(6-{3-Azabicyclo[3.1.0]hexan-3-yl}-4-chloropyridin-3-yl)methyl]-N-[(4R)-1-methyl-1H,4H,5H,6H-cyclopenta[d]imidazol-4-yl]-1H-imidazole-4-carboxamide]	8.62	6.03	< 5.00
Cn1cnc2c1CC[C@H]2NC(=O)c1cn(Cc2ccc(N3CC4CC4C3)nc2F)cn1 (stereo partly drawn) [Example 108, 1-[(6-{3-Azabicyclo[3.1.0]hexan-3-yl}-2-fluoropyridin-3-yl)methyl]-N-[(4R)-1-methyl-1H,4H,5H,6H-cyclopenta[d]imidazol-4-yl]-1H-imidazole-4-carboxamide]	8.77	6.33	< 5.00
COCc1nc(N2CC3CC3C2)ccc1Cn1cc(C(=O)N[C@@H]2CCc3c2ncn3C)cn1 (stereo partly drawn) [Example 49, 1-[(6-{3-Azabicyclo[3.1.0]hexan-3-yl}-2-(methoxymethyl)-pyridin-3-yl)methyl]-N-[(4R)-1-methyl-1H,4H,5H,6H-cyclopenta[d]imidazol-4-yl]-1H-pyrazole-4-carboxamide]	8.60	6.60	< 5.00
Cc1nc(N2CC3CC3C2)ccc1Cn1cnc(C(=O)N[C@@H]2CCc3c2ncn3C)c1 (stereo partly drawn) [Example 23, 1-[(6-{3-Azabicyclo[3.1.0]hexan-3-yl}-2-methylpyridin-3-yl)methyl]-N-[(4R)-1-methyl-1H,4H,5H,6H-cyclopenta[d]imidazol-4-yl]-1H-imidazole-4-carboxamide]	8.96	6.63	< 5.00
